The conditions of data set [1]: oral formulation ENTOCORT EC, extensive first-pass metabolism; cited from earlier work.
Data set [2] has as its target T1, PD-1-Ig binding to PD-L1-TVMV-His (PD-L1-His) (Homo sapiens, UniProt Q9NZQ7).
T1 construct: hPDL1(19-239)-TVMV-His; TVMV protease cleavage site (C); made in house; host or cells: HEK293T cells
Briefly: PD-1/PD-L1 Homogenous Time-Resolved Fluorescence (HTRF) binding assay. As to conditions: PD-1-Ig/PD-L1-His binding. From the text: The ability of the macrocyclic peptides of the present disclosure to bind to PD-L1 was investigated using a PD-1/PD-L1 Homogenous Time-Resolved Fluorescence (HTRF) binding assay.
Homogenous Time-Resolved Fluorescence (HTRF) Assays of Binding of Soluble PD-1 to Soluble PD-L1. Soluble PD-1 and soluble PD-L1 refers to proteins with carboxyl-end truncations that remove the transmembrane-spanning regions and are fused to heterologous sequences, specifically the Fc portion of the human immunoglobuling G sequence (Ig) or the hexahistidine epitope tag (His). All binding studies were performed in an HTRF assay buffer consisting of dPBS supplemented with 0.1% (w/v) bovine serum albumin and 0.05% (v/v) Tween-20. For the PD-1-Ig/PD-L1-His binding assay, inhibitors were pre-incubated with PD-L1-His (10 nM final) for 15 m in 4 μl of assay buffer, followed by addition of PD-1-Ig (20 nM final) in 1 μl of assay buffer and further incubation for 15 m. PD-L1 fusion proteins from either human, cynomologous macaques, mouse, or other species were used. HTRF detection was achieved using europium crypate-labeled anti-Ig monoclonal antibody (1 nM final) and allophycocyanin (APC) labeled anti-His monoclonal antibody (20 nM final). Antibodies were diluted in HTRF detection buffer and 5 μl was dispensed on top of binding reaction. The reaction was allowed to equilibrate for 30 minutes and signal (665 nm/620 nm ratio) was obtained using an EnVision fluorometer. Additional binding assays were established between PD-1-Ig/PD-L2-His (20 and 5 nM, respectively), CD80-His/PD-L1-Ig (100 and 10 nM, respectively) and CD80-His/CTLA4-Ig (10 and 5 nM, respectively). Binding/competition studies between biotinylated Compound No. 71 and human PD-L1-His were performed as follows. Macrocyclic peptide inhibitors were pre-incubated with PD-L1-His (10 nM final) for 60 minutes in 4 μl of assay buffer followed by addition of biotinylated Compound No. 71 (0.5 nM final) in 1 μl of assay buffer. Binding was allowed to equilibrate for 30 minutes followed by addition of europium crypated labeled Streptavidin (2.5 pM final) and APC-labeled anti-His (20 nM final) in 5 μl of HTRF buffer. The reaction was allowed to equilibrate for 30 m and signal (665 nm/620 nm ratio) was obtained using an EnVision fluorometer.
Recombinant Proteins. Carboxyl-truncated human PD-1 (amino acids 25-167) with a C-terminal human Ig epitope tag [hPD-1 (25-167)-3S-IG] and human PD-L1 (amino acids 18-239) with a C-terminal His epitope tag [hPD-L1(19-239)-tobacco vein mottling virus protease cleavage site (TVMV)-His] were expressed in HEK293T cells and purified sequentially by recombinant Protein A affinity chromatography and size exclusion chromatography. Human PD-L2-His (Sino Biologicals), CD80-His (Sino Biologicals), CTLA4-Ig (RnD Systems) were all obtained through commercial sources.
Ranges are as follows: A=0.10-10 μM; B=0.01-0.099 μM; C=0.004-0.0099 μM.
For orientation: In TR-FRET formats the signal depends on donor and acceptor labels being close together.

Starred links: 1 amine or outer side, 2 acyl side, 3 side chain; linkers in the order of their positions; H or OH if unused. Positions of bridges follow the written chain, without caps; N, C: chain ends. Non-standard residues stand in square brackets, D forms with d. Residues, ends and D or L forms follow the SMILES beside them. ξ: configuration not given here. X5 = NC(=O)CNC(=O)[C@H](CSCC(=O)[*:1])CC(=O)C1(N[*:2])CC1; Bta = N[C@@H](Cc1csc2ccccc12)C(=O)O; X3 = C[C@H]1CC1(N[*:1])C(=O)[*:2]; Hyp = O=C(O)[C@@H]1C[C@@H](O)CN1; NMeNle = CCCC[C@H](NC)C(=O)O; hLeu = CC(C)CC[C@H](N)C(=O)O; NMeA = CN[C@@H](C)C(=O)O; Dab = NCC[C@H](N)C(=O)O; Dap = NC[C@H](N)C(=O)O; Aib = CC(C)(N)C(=O)O; ξC = NC(CS)C(=O)O; Sar = CNCC(=O)O

A word on the IC50: it is the midpoint of a concentration-inhibition curve. The low end stands for greater potency, the high end for weaker potency.

T1 sequence (Q9NZQ7 with tags, fused parts or gaps): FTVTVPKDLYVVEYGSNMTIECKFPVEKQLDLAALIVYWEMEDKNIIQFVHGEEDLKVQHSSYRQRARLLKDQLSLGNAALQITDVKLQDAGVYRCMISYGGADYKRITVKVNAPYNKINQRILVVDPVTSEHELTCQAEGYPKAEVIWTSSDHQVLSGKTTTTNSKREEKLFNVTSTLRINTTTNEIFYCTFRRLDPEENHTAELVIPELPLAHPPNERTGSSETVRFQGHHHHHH

Turning to `CCCC1O[C@@H]2C[C@H]3[C@@H]4CCC5=CC(=O)C=C[C@]5(C)[C@H]4[C@@H](O)C[C@]3(C)[C@]2(C(=O)CO)O1` (some centres unmarked) [budesonide], the bioavailability result in data set [1] was “about 10%”.
As to `CCCC[C@H]1C(=O)N(C)[C@@H](CCCC)C(=O)NC(C)(C)C(=O)N[C@H](C(=O)NCC(N)=O)CSCC(=O)N[C@@H](Cc2ccc(O)cc2)C(=O)N(C)[C@@H](C)C(=O)N[C@@H](CC(N)=O)C(=O)N2CCC[C@H]2C(=O)N[C@@H](CN)C(=O)N[C@@H](CC(C)C)C(=O)N2C[C@H](O)C[C@H]2C(=O)N[C@@H](Cc2c[nH]c3ccccc23)C(=O)N[C@@H](CCN)C(=O)N[C@@H](Cc2c[nH]c3ccccc23)C(=O)N1C` [Example 9005] ({CH2CO}-Y[NMeA]NP[Dap]L[Hyp]W[Dab]W[NMeNle][NMeNle][Aib]CG-NH2; thioether N-14), in data set [2] (values given as range classes), the IC50 was 100 to 10000 nM.
As to `CCCC[C@H]1C(=O)N(C)[C@@H](CCCC)C(=O)N[C@@H](CCCNC(=N)N)C(=O)NC(C(=O)NCC(N)=O)CSCC(=O)N[C@@H](Cc2ccc(O)cc2)C(=O)NC2(CC2)C(=O)N[C@@H](CC(N)=O)C(=O)N2CCC[C@H]2C(=O)N[C@@H](Cc2c[nH]cn2)C(=O)N[C@@H](CC(C)C)C(=O)N2C[C@H](O)C[C@H]2C(=O)N[C@@H](Cc2c[nH]c3ccccc23)C(=O)N[C@@H](CO)C(=O)N[C@@H](Cc2c[nH]c3ccccc23)C(=O)N1C` (some centres unmarked) [Example 9002], the IC50 in data set [2] (numeric values) came out at 4.13 nM. This lies in the single-digit nanomolar range.
In turn, `CCCC[C@H]1C(=O)N(C)[C@@H](CCCC)C(=O)N[C@@H](CC(C)C)C(=O)N[C@H](C(=O)NCC(N)=O)CSCC(=O)N[C@@H](Cc2ccc(O)cc2)C(=O)N(C)[C@@H](C)C(=O)NC(C)(C)C(=O)N2CCC[C@H]2C(=O)N[C@@H](CN)C(=O)N[C@@H](CC(C)C)C(=O)N2C[C@H](O)C[C@H]2C(=O)N[C@@H](Cc2c[nH]c3ccccc23)C(=O)N[C@@H](CCN)C(=O)N[C@@H](Cc2c[nH]c3ccccc23)C(=O)N1C` [Example 9013] ({CH2CO}-Y[NMeA][Aib]P[Dap]L[Hyp]W[Dab]W[NMeNle][NMeNle]LCG-NH2; thioether N-14) displayed an IC50 in data set [2] (values given as range classes) of 100 to 10000 nM.
`CCCC[C@H]1C(=O)N(C)[C@@H](CCCC)C(=O)N[C@@H](CCCNC(=N)N)C(=O)N[C@H](C(=O)NCC(N)=O)CSCC(=O)N[C@@H](Cc2ccccc2)C(=O)N(C)[C@@H](C)C(=O)N[C@@H](CC(N)=O)C(=O)N2CCC[C@H]2C(=O)N[C@@H](Cc2cnc[nH]2)C(=O)N[C@@H](CC(C)C)C(=O)N(C)CC(=O)N[C@@H](Cc2c[nH]c3ccccc23)C(=O)NC(C)(C)C(=O)N[C@@H](Cc2c[nH]c3ccccc23)C(=O)N1C` [Example 1003] ({CH2CO}-F[NMeA]NPHL[Sar]W[Aib]W[NMeNle][NMeNle]RCG-NH2; thioether N-14) returned an IC50 in data set [2] (values given as range classes) of 100 to 10000 nM.
Same read-out and setting: the value for `CCCC[C@H]1C(=O)N(C)[C@@H](CCCC)C(=O)N[C@@H](CCCNC(=N)N)C(=O)NC(C(=O)NCC(N)=O)CSCC(=O)N[C@@H](Cc2ccc(O)cc2)C(=O)N(C)[C@@H](C)C(=O)N[C@@H](CC(N)=O)C(=O)N2C[C@H](O)C[C@H]2C(=O)N[C@@H](Cc2cnc[nH]2)C(=O)N[C@@H](CC(C)C)C(=O)NC2(C[C@@H]2C)C(=O)N[C@@H](Cc2c[nH]c3ccccc23)C(=O)N[C@@H](CO)C(=O)N[C@@H](Cc2csc3ccccc23)C(=O)N1C` (some centres unmarked) [Example 10006] ({CH2CO}-Y[NMeA]N[Hyp]HL[X3]WS[Bta][NMeNle][NMeNle]R[ξC]G-NH2; thioether N-14) was 100 to 10000 nM.
In the case of `CCCC[C@H]1C(=O)N(C)[C@@H](CCCC)C(=O)NC2(CC2)C(=O)C[C@H](C(=O)NCC(N)=O)CSCC(=O)N[C@@H](Cc2ccccc2)C(=O)N(C)[C@@H](C)C(=O)N[C@@H](CC(N)=O)C(=O)N2CCC[C@H]2C(=O)N[C@@H](Cc2c[nH]cn2)C(=O)N[C@@H](CCC(C)C)C(=O)NCC(=O)N[C@@H](Cc2c[nH]c3ccccc23)C(=O)N[C@@H](CO)C(=O)N[C@@H](Cc2c[nH]c3ccccc23)C(=O)N1C` [Example 5001] (F[NMeA]NPH[hLeu]GWSW[NMeNle][NMeNle]; linker N-C via X5), the IC50 in data set [2] (values given as range classes) is 100 to 10000 nM.
As for `CCCC[C@H]1C(=O)N(C)[C@@H](CCCC)C(=O)N[C@@H](CC(C)C)C(=O)N[C@H](C(=O)NCC(N)=O)CSCC(=O)N[C@@H](Cc2ccc(O)cc2)C(=O)N(C)[C@@H](C)C(=O)N[C@@H](CC(N)=O)C(=O)N2CCC[C@H]2C(=O)NC(C)(C)C(=O)N[C@@H](CC(C)C)C(=O)N2C[C@H](O)C[C@H]2C(=O)N[C@@H](Cc2c[nH]c3ccccc23)C(=O)N[C@@H](CCN)C(=O)N[C@@H](Cc2c[nH]c3ccccc23)C(=O)N1C` [Example 9011] ({CH2CO}-Y[NMeA]NP[Aib]L[Hyp]W[Dab]W[NMeNle][NMeNle]LCG-NH2; thioether N-14), in data set [2] (numeric values), the IC50 came to 20 nM.

Values taken from patent US9944678B2, “Immunomodulators” (BRISTOL-MYERS SQUIBB COMPANY, priority 2014, dated 2018).
